For data set [1], the system named is A549 human non-small cell lung carcinoma. Put plainly: Cell viability, cellular ATP levels (Vialight HS). Format: cell-based. The following applies: Table 5, A549, NSCL-adrenocarinoma, tumor, ATP levels 72 h post-treatment. From the text:
(§1) The following cell lines were used: A549 human non-small cell lung carcinoma; C33A human cervical carcinoma; H1299 human non-small cell lung carcinoma; Hep-3B human hepatocellular carcinoma; MIA-Paca-2 human pancreatic carcinoma; PC-3 human prostatic adenocarcinoma (American Type Culture Collection, Manassas, Va., USA); HMEC normal human mammary epithelial cells; HUVEC normal human umbilical vein endothelial cells; and NHBE normal human bronchial epithelial cells (Cambrex Bio Science, Rockland, Me., USA). […] HMEC, HUVEC and NHBE cell lines were cultured in MEGM, EGM-2 and BEGM media, respectively (Cambrex Bio Science, Rockland, Me., USA). The cell lines were plated in 96-well microtitre plate at a density of 2–4×10^3 cells per well. After 16 hours, the cells were treated with various concentrations of Compound 50a or Compound 50b. Stock solutions of Compound 50a and Compound 50b, respectively, were prepared in dimethyl sulfoxide at a concentration of 5 mM. Serial dilutions were prepared in RPMI, 10% FBS and 2% DMSO and then added to the cells. The total DMSO in the cell cultures was 1%. […] The IC50s were determined using a best-fit sigmoidal dose response curve with variable slope.

The test system of data set [2] is HMEC normal human mammary epithelial cells. The experiment in a line: Cell viability, cellular ATP levels (Vialight HS). Format: cell-based. The following applies: Table 5, breast epithelial, ATP levels 72 h post-treatment.
Source text: as §1

Data set [3] deals with PC-3 human prostatic adenocarcinoma. The experiment in a line: Cell viability, cellular ATP levels (Vialight HS). Format: cell-based. The following applies: Table 5, PC-3, prostate, tumor, ATP levels 72 h post-treatment.
Source text: as §1

In data set [4] the test system is MIA-Paca-2 human pancreatic carcinoma. The experiment in a line: Cell viability, cellular ATP levels (Vialight HS). The data set is classed as cell-based. The following applies: Table 5, MIA-Paca-2, pancreas, tumor, ATP levels 72 h post-treatment.
Source text: as §1

For data set [5], the system named is HUVEC normal human umbilical vein endothelial cells. Put plainly: Cell viability, cellular ATP levels (Vialight HS). Format: cell-based. The following applies: Table 5, ATP levels 72 h post-treatment.
Source text: as §1

Data set [6] relates to NHBE normal human bronchial epithelial cells. The experiment in a line: Cell viability, cellular ATP levels (Vialight HS). The following applies: Table 5, ATP levels 72 h post-treatment. Format: cell-based.
Source text: as §1

Data set [7] concerns Hep-3B human hepatocellular carcinoma. The experiment in a line: Cell viability, cellular ATP levels (Vialight HS). Format: cell-based. The following applies: Hep3B, Table 5, liver, tumor, ATP levels 72 h post-treatment.
Source text: as §1

Data set [8] deals with H1299 human non-small cell lung carcinoma. Put plainly: Cell viability, cellular ATP levels (Vialight HS). Format: cell-based. The following applies: NCI-H1299, Table 5, H1299, NSCL-LC carcinoma, tumor, ATP levels 72 h post-treatment vs untreated cells, read-out: IC50.
Source text: as §1
(§2) The selected tumor cell lines included C33A human cervical carcinoma and H1299 human non-small cell lung carcinoma (American Type Culture Collection, Manassas, Va., USA). The cell lines were cultured in RPMI 1640 media supplemented with 10% FBS (Hyclone, Logan, Vt., USA), 100 U/mL penicillin, 100 μg/mL streptomycin and 2 mM L-glutamine (Invitrogen, Carlsbad, Calif., USA). The cell lines were plated in 96-well microtitre plate at a density of 2–4×10^3 cells per well. After 16 hours, the cells were treated with various concentrations of compound 66, 67, 68, 69 and 70, respectively. Stock solutions of compounds 66, 67, 68, 69 and 70 were prepared in dimethyl sulfoxide at a concentration of 5 mM. Serial dilutions were prepared in RPMI, 10% FBS and 2% DMSO and then added to the cells. The total DMSO on the cells was 1%. […] The IC50s were determined using a best-fit sigmoidal dose response curve with variable slope.

In data set [9] the test system is C33A human cervical carcinoma. Put plainly: Cell viability, cellular ATP levels (Vialight HS). The data set is classed as cell-based. The following applies: C-33-A, Table 5, C33A, cervix, tumor, ATP levels 72 h post-treatment, read-out: IC50.
Source text: as §1, §2

Data set [10] in a line: Body weight of SW480 tumor-bearing mice. Format: in vivo, CB17 SCID/SCID female mice. The following applies: i.v. once daily for five days; 10 mg/kg (50, 50a, 50b), 50 mg/kg (74a). The protocol: (§3) SW480 cells were transplanted subcutaneously into the flank of female CB 17 SCID/SCID mice. Each mouse was inoculated with a suspension of 1×10^6 tumor cells per 100 μL on day zero. The following five treatment groups of ten mice each were used: (a) a negative control group treated with intravenous (i.v.) injection of vehicle, (b) a group treated with i.v. injection of a Compound 50, (c) a group treated with i.v. injection of a Compound 50a, (d) a group treated with i.v. injection of Compound 50b, (e) a group treated with i.v. injection of Compound 74a.
(§4) Treatment started on day twelve after SW480 cells transplantation and Compounds 50, 50a, 50b and 74a were administered i.v. once daily for five consecutive days at a dose of 10, 10, 10 and 50 mg/kg, respectively. Compound 50, 50a and 50b were prepared as a working solution of 1.5 mg/mL in a vehicle solution of 20% Cremaphor EL (Sigma, St. Louis, Miss., USA), and 10% Ethanol. Compound 74a was prepared as a working solution of 5 mg/mL in a vehicle solution of 5% Dextrose (Abbot Laboratories, QC, Canada). The negative control groups were treated with vehicle solution of 20% Cremaphor EL and 10% Ethanol alone.
(§5) The mice were weighed and the tumors measured on day 12 and every 2 to 3 days after treatment commenced. Observations continued for 23 days after initial tumor implantation. The changes in body weight and in the calculated tumor volume were plotted (FIGS. 9 and 10). Statistical analysis was performed using GraphPad Prism (GraphPad Software Inc., San Diego, Calif.). Two-way ANOVA was used to determine how the treatment affected tumor growth over time. Following the two-way ANOVA, post-tests were performed using the Benferroni method to determine the statistical difference between the mean tumor-size of the two groups being compared on every day that the tumors were measured.

The subject of data set [11] is SW480 human colon carcinoma cancer cells. Put plainly: SW480 colon carcinoma xenograft in SCID mice. The following applies: i.v. 10 mg/kg once a day for five days. The data set is classed as in vivo, CB17 SCID/SCID female mice. The protocol:
The resultant mice are a model for a human having colon carcinoma cancer.
The SW480 human colon carcinoma cancer cells were maintained in RPMI supplemented with 10% inactivated fetal bovine serum and 1% penicillin-streptomycin-L-Glutamine, under 5% CO2 at 37° C., and passaged twice a week. The cells were grown at a confluency lower than 70% and then collected with Trypsin (Bio-Whittaker, Md., USA). The cells were then centrifuged and washed twice using phosphate buffered saline solution (PBS) and resuspended in PBS at 1×10^6 cells per 100 μl. Viability was examined by staining with Trypan Blue and only flasks with cell viability of greater than 95% were used for in vivo studies.
as §3, §4, §5

Data set [12] concerns the target T1, human placental alkaline phosphatase (Homo sapiens, UniProt P05187).
T1 construct: purchased Sigma-Aldrich Canada Ltd
The experiment in a line: Conversion of phosphate pro-drug by alkaline phosphatase in vitro. The data set is classed as in vitro ADME. The following applies: 0.02 U/100 μL enzyme, 15 μM pro-drug, pH 7.4, within thirty minutes. How it is done:
The conversion into biologically active drug of phosphate pro-drugs by human placental alkaline phosphatase was measured in vitro using purified enzymes. Purified human placental alkaline phosphatase (Sigma-Aldrich Canada Ltd. Oakville, Ontario, Canada) was added at a concentration of 0.02 U/100 μL to a solution containing 15 μM of phosphate pro-drug, 20 mM Tris-HCl, pH 7.4 and 0.9% NaCl. The solutions were incubated for 10, 20 or 30 minutes. A solution containing 15 μM of phosphate pro-drug, 20 mM Tris-HCl, pH 7.4 and 0.9% NaCl was used a reference (time=0 minutes). To each solution, an equal volume (100 μL) of ice-cold acetonitrile was added, and then the mixture was vortexed and transferred to glass vials. A standard concentration curve of the pro-drug and the drug was prepared in 10 mM Tris-HCl, pH 7.4, 0.45% NaCl and 50% acetonitrile. All samples were immediately analyzed by LC/MS.

A short description of data set [13]: Solubility by filtration and LC/MS. The data set is classed as physicochemical. The following applies: in water (printed for Compound 74). The protocol: To determine whether a compound is soluble in a solution, the solution was filtered on […] polytetrafluoroethylene filters (Whatman Inc. Clifton, N.J., USA) and the compound concentration in the filtrate was measured by LC/MS and compared to the expected concentration. If the concentration of the compound in the filtrate was equal +/−15% to the expected concentration, the compound was judged to be soluble in the solution.
The detection of Compound 74 or Compound 50 by LC/MS was carried out using the HPLC system that consisted of a Waters Alliance quaternary gradient HPLC pump (Waters, Milford, Mass., USA) and a ZQ2000 single quadrupole mass spectrometer (Waters, Milford, Mass., USA). The column used was XTerra MS C18: 50×2.1 mm, […] column at 20° C. Samples were injected and separated under the following conditions: The mobile phase “A” consisted of 5 mM ammonium formate, 0.1% formic acid in water and mobile phase “B” consisted of 5 mM ammonium formate, 0.1% formic acid in methanol. A linear gradient was applied as follows: 0 to 1 min, 94% “A” and 6% “B”; 1 to 4 min, 6% to 100% “B”; 4 to 8 min 100% “B”; 8 to 9 min, 100% “B” to 6% “B”; 9 to 12 min, 94% “A” and 6% “B”. […] Compounds were detected at m/z equal to their respective molecular weight plus 1.

The structures appear in SMILES notation. A value given as a limit tells only on which side of the number the result lay.

T1 sequence (P05187 23-506 limits assumed): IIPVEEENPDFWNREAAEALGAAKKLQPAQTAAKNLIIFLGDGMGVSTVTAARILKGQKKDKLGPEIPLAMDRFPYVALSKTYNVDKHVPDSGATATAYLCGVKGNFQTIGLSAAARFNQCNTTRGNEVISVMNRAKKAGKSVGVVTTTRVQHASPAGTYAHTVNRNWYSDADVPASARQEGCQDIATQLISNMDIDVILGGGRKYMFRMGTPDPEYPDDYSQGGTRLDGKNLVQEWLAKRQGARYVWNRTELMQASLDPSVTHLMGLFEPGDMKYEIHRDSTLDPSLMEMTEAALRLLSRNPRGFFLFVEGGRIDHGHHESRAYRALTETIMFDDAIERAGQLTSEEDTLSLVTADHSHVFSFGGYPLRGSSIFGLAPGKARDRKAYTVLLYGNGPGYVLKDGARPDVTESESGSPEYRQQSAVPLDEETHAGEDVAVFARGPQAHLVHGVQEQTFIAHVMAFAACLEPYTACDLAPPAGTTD

On to `COc1ccc2c(c1)[C@]1(C)C=CC(=O)C(C)(C)C1=C(O)C2=O` [Compound 50b], for which the IC50 (as a rule, the midpoint of a concentration-inhibition curve) in data set [1] amounted to 580 nM; in data set [2], 2100 nM; in data set [3], 350 nM; in data set [4], 250 nM; in [5], 1300 nM; in data set [6], 1200 nM. Besides, the IC50 stood at 770 nM in data set [7], 230 nM in data set [8] and 450 nM in data set [9]. For the same compound, the “Change in body weight” value in [10] was “non-significant change in body weight”. For the same compound, the “Tumor growth compared to vehicle” value in data set [11] is “significant reduction (p<0.001)”.

For the compound `COc1ccc2c(c1)[C@@]1(C)C=CC(=O)C(C)(C)C1=C(O)C2=O` [Compound 50a], the IC50 in data set [1] was 630 nM; in [2] it was 2300 nM; in [3] it was 370 nM; in data set [4] it was 660 nM; in [5], 1700 nM; in [6], 1200 nM. Further, the IC50 in data set [7] was found to be 970 nM; in data set [8], 550 nM; in data set [9] it was 500 nM. The “Change in body weight” value in [10] is recorded as “non-significant change in body weight”. In addition, the “Tumor growth compared to vehicle” value in data set [11] was “significant reduction (p<0.001)”.

In the case of `COc1ccc2c(c1)C1(C)C=CC(=O)C(C)(C)C1=C(OP(=O)(O)O)C2=O` (racemic) [Compound 74], the “Conversion of pro-drug into drug Compound 50” value in data set [12] was “convert a fraction of the pro-drug”. Moreover, the solubility (in general, how much of the substance goes into solution per volume) in data set [13] was not below 10000 µg/mL.

For the origin of these results see patent US7230139B2, “Diterpenoid compounds, compositions thereof and their use as anti-cancer or anti-fungal agents” (priority 2004, dated 2007).
